# Article PMC7180622, “PET Imaging of the Adenosine A2A Receptor in the Rotenone-Based Mouse Model of Parkinson’s Disease with [^18F]FESCH Synthesized by a Simplified Two-Step One-Pot Radiolabeling Strategy” (Molecules, 2020)
# Key:
# [1] = molecular target: T1, adenosine A2A receptor (hA2AR) (Homo sapiens, UniProt P29274); experiment: radioligand displacement with [3H]ZM241385; format: binding
# T1 construct: gene ADORA2A; membrane homogenates of stably transfected CHO-K1 cells
# [2] = molecular target: T2, adenosine A1 receptor (hA1R) (Homo sapiens, UniProt P30542); experiment: radioligand displacement with [3H]DPCPX; format: binding
# T2 construct: gene ADORA1; membrane homogenates of stably transfected CHO-K1 cells
# T2 sequence (P30542 1-326): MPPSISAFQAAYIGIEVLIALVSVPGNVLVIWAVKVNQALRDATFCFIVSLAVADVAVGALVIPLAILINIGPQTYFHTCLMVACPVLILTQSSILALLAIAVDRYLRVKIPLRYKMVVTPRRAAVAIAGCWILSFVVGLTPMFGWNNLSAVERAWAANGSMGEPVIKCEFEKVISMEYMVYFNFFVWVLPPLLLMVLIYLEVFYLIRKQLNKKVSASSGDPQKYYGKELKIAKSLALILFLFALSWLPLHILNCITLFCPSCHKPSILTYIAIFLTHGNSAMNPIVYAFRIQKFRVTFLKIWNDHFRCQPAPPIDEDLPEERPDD
# T1 sequence (P29274 whole entry): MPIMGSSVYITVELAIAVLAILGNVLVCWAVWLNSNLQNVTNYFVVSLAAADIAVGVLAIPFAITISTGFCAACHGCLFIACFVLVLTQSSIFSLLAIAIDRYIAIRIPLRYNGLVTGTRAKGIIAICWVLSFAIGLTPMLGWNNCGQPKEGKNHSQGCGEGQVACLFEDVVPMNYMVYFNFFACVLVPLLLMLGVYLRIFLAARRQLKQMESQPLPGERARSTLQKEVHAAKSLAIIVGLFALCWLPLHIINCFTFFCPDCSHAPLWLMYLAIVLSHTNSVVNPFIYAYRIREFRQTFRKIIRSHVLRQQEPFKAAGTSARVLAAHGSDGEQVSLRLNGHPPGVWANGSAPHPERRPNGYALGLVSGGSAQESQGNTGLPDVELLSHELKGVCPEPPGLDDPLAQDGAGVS
smiles,measurement,setting,value
Nc1nc2c(cnn2CCCc2ccc(OCCF)cc2)c2nc(-c3ccco3)nn12 [FESCH],Ki,[1],0.6 ± 0.1 nM
same,Ki,[2],203 ± 40 nM
